In patent US8592448B2 (OSI Pharmaceuticals, LLC, priority 2008, dated 2013):

What was measured:
[1] = target: T1, phosphorylated c-MET (Homo sapiens, UniProt P08581); assay: c-MET cell mechanistic assay (phosphorylated c-MET in MKN45 cells); type: cell-based; settings: MKN45 cell line, four hours incubation, phosphorylated c-MET levels, at least duplicate experiments; read-out: Met mech IC50
T1 construct: endogenous in cells; host or cells: MKN45
Description: The cellular activity of the compounds of the present invention may be determined by the following procedure. MKN45 cells were plated in Falcon 3072 96-well plates in growth media (RPMI, 10% FBS, 1% L-glutamine) at a density of 5000 cells/well and incubated at 37° C., 5% CO2 overnight. The following day, one-tenth volume of a 10× concentration of compounds was added to the wells in a 6-point dilution series. The dilutions series was composed of an initial 1:5 dilution in DMSO, followed by a 1:10 dilution in growth media, for a final DMSO concentration on cells of 0.5%. Control wells were treated with 0.5% DMSO. The typical range of dilution was 10 μM to 3 nM. Once compound was added to the cells, plates were incubated for four hours at 37° C., 5% CO2. Plates were then washed in PBS, and lysed in triton-based lysis buffer. Lysates were transferred to a precoated capture plate made by Biosource (Cat # KH00281). The phosphorylated c-MET levels were measured by incubating with a rabbit polyclonal antibody against phosphorylated c-MET ([pYpYpY1230/1234/1235]) followed by an anti-rabbit antibody conjugated to HRP. Signal was measured on a Wallac Victor plate reader at 450 nm. The DMSO signal of the control wells was defined as 100% and the percent of inhibition of phosphorylated c-Met was expressed as percent of control. IC50 values were determined from the percent of control data using a standard four-parameter model.
(§1) The IC50 values of exemplary compounds of the present invention determined in a c-MET cell mechanistic assay using the MKN45 cell line according to the procedures described herein in at least duplicate experiments are abbreviated as follows and are shown in Table 3: A, IC50≦0.1 μM; B, 0.1 μM<IC50≦1 μM; C, 1 μM<IC50≦10 μM; D, IC50>10 μM; ND, not determined. The Example # of Table 3 corresponds to the compound example number as illustrated in the Examples section.

[2] = test system: MKN45 cells; assay: MKN45 cell proliferation assay (CellTiter-Glo); type: cell-based; settings: Homo sapiens, MKN-45, 72 h, MKN45 cell line, 3 days incubation, at least duplicate experiments, read-out: Prolif. IC50
Description: The effect of inhibitors on the proliferation of MKN45 cells was determined using the following protocol. MKN45 cells were plated in Corning 3917 96-well white tissue culture treated plates in growth medium (RPMI, 10% FCS) at a density of 5000 cells/well in a total volume of 135 μL and incubated at 37° C., 5% CO2, 95% humidity overnight. The following day, one-tenth volume of a 10× concentration of compounds was added to the wells in an 8-point dilution series. The dilution series was composed of an initial 1:5 dilution of a 10 mM stock of compound in DMSO, followed by serial 1:4 dilutions in DMSO, then a 1:20 dilution in growth medium prior to the 1:10 dilution into the cell plate. Final DMSO concentration on the cells was 0.1%, there were control wells treated with both 0.1% DMSO and no DMSO. The typical dilution range is 10 μM to 0.6 nM. Once the compound was added to the cells, plates were incubated for 3 days at 37° C., 5% CO2 at 95% humidity. On the third day, after allowing all cells and reagents to come to room temperature, 25 μL of CellTiter-Glo reagent (Promega # G7573) was added to the wells. Plates were shaken on a platform for 10 minutes prior to reading luminescence for 0.1 seconds. The signal of the control wells was taken as 100% growth and growth inhibition was expressed as percent of control. IC50 values were determined from the percent of control data using a standard four-parameter model.
as §1, with “a” for “a c-MET”, “proliferation” for “mechanistic”, “2:” for “3:”, “2” for “3”

T1 sequence (P08581 25-1390): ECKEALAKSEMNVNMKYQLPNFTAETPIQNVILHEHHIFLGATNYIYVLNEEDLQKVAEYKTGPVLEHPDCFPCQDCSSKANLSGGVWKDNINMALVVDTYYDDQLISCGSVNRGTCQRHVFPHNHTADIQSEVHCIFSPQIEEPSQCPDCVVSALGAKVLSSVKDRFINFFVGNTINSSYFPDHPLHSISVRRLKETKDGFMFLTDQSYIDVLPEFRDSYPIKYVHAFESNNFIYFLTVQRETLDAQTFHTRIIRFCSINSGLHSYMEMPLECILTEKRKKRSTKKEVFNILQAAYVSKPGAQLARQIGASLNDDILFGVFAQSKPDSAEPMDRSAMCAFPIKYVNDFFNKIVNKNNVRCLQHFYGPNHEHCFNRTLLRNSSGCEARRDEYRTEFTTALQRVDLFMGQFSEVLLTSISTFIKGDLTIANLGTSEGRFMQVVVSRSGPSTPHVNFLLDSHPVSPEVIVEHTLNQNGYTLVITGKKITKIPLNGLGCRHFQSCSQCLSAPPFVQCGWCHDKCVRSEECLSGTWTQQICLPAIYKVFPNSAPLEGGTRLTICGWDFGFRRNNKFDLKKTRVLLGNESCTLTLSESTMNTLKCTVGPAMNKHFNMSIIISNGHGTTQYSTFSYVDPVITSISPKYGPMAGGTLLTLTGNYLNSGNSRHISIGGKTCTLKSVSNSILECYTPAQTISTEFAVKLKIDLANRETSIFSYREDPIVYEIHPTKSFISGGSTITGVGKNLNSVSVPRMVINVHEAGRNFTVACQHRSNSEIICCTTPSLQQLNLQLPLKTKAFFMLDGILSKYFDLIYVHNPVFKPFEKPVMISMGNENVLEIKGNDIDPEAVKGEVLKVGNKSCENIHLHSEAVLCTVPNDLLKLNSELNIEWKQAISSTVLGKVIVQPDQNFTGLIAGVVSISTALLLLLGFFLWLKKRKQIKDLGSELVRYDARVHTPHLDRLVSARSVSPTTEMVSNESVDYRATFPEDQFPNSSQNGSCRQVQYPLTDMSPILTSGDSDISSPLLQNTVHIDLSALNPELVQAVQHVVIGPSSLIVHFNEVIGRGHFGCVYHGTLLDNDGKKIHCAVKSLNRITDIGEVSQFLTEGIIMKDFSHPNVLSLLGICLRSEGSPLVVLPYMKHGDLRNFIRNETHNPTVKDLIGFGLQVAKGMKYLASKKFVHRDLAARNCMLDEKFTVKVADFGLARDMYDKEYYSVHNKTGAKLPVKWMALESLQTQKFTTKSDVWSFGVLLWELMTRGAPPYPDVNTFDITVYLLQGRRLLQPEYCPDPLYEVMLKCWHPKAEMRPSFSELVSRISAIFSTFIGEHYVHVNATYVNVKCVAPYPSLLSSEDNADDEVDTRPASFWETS

Row | Compound | IC50 [1] | IC50 [2]
1 | CC(c1c(Cl)ccc(F)c1Cl)c1c[nH]c2ncc(-c3cnn(C(C)(C)C(N)=O)c3)cc12 (centres unmarked) [Example 64, 2-(4-{3-[1-(2,6-Dichloro-3-fluorophenyl)ethyl]-1H-pyrrolo[2,3-b]pyridin-5-yl}-pyrazol-1-yl)-isobutyramide] | ≤ 0.1 µM | 0.1 to 1 µM
2 | CC(c1c(Cl)ccc(F)c1Cl)c1c[nH]c2ncc(-c3cn(C)cn3)cc12 (centres unmarked) [Example 54, 3-[1-(2,6-Dichloro-3-fluorophenyl)ethyl]-5-(1-methyl-1H-imidazol-4-yl)-1H-pyrrolo[2,3-b]pyridine] | 0.1 to 1 µM | 
3 | CC(c1c(Cl)ccc(F)c1Cl)c1c[nH]c2ncc(-c3ccsc3)cc12 (centres unmarked) [Example 9, 3-[1-(2,6-Dichloro-3-fluorophenyl)ethyl]-5-thiophen-3-yl-1H-pyrrolo[2,3-b]pyridine] |  | 1 to 10 µM
4 | CNC(=O)N1CC=C(c2cnc3[nH]cc(C(C)c4c(Cl)ccc(F)c4Cl)c3c2)CC1 (centres unmarked) [Example 34, 4-{3-[1-(2,6-Dichloro-3-fluorophenyl)ethyl]-1H-pyrrolo[2,3-b]pyridin-5-yl}-3,6-dihydro-2H-pyridine-1-carboxylic acid methylamide] | 0.1 to 1 µM | 
5 | CC(c1c(Cl)ccc(F)c1Cl)c1c[nH]c2ncc(-c3ccc(N(C)C)cc3)cc12 (centres unmarked) [Example 11, (4-{3-[1-(2,6-Dichloro-3-fluorophenyl)ethyl]-1H-pyrrolo[2,3-b]pyridin-5-yl}phenyl)dimethylamine] |  | 1 to 10 µM
6 | CC(=O)Nc1ccc(-c2cnc3[nH]cc(C(C)c4c(Cl)ccc(F)c4Cl)c3c2)cc1 (centres unmarked) [Example 10, N-(4-{3-[1-(2,6-Dichloro-3-fluorophenyl)ethyl]-1H-pyrrolo[2,3-b]pyridin-5-yl}phenyl)acetamide] |  | 1 to 10 µM
7 | CC(c1c(Cl)ccc(F)c1Cl)c1c[nH]c2ncc(-c3ccc(N4CCN(C)CC4)cc3)cc12 (centres unmarked) [Example 16, 3-[1-(2,6-Dichloro-3-fluorophenyl)ethyl]-5-[4-(4-methylpiperazin-1-yl)phenyl]-1H-pyrrolo[2,3-b]pyridine] |  | 0.1 to 1 µM
8 | CC(c1c(Cl)ccc(F)c1Cl)c1c[nH]c2ncc(-c3ccc(N4CCOCC4)cc3)cc12 (centres unmarked) [Example 25, 3-[1-(2,6-Dichloro-3-fluorophenyl)ethyl]-5-(4-morpholin-4-ylphenyl)-1H-pyrrolo[2,3-b]pyridine] |  | 0.1 to 1 µM
9 | CC(c1c(Cl)ccc(F)c1Cl)c1c[nH]c2ncc(-c3ccc(C(N)=O)cc3)cc12 (centres unmarked) [Example 14, 4-{3-[1-(2,6-Dichloro-3-fluorophenyl)ethyl]-1H-pyrrolo[2,3-b]pyridin-5-yl}benzamide] |  | 1 to 10 µM
10 | 3-[1-(2,6-Dichloro-3-fluorophenyl)ethyl]-5-[1-(1-methanesulfonylpiperidin-4-yl)-1H-pyrazol-4-yl]-1H-pyrrolo[2,3-b]pyridine [Example 37] | 0.1 to 1 µM | 
11 | CC(c1c(Cl)ccc(F)c1Cl)c1c[nH]c2ncc(C3=CCN(C(=O)C(O)C(F)(F)F)CC3)cc12 (centres unmarked) [Example 44] | 0.1 to 1 µM | 
12 | COC(=O)N1CC=C(c2cnc3[nH]cc(C(C)c4c(Cl)ccc(F)c4Cl)c3c2)CC1 (centres unmarked) [Example 35, 4-{3-[1-(2,6-Dichloro-3-fluorophenyl)-ethyl]-1H-pyrrolo[2,3-b]pyridin-5-yl}-3,6-dihydro-2H-pyridine-1-carboxylic acid methyl ester] | 0.1 to 1 µM | 
13 | CC(c1c(Cl)ccc(F)c1Cl)c1c[nH]c2ncc(-c3cncnc3)cc12 (centres unmarked) [Example 12, 3-[1-(2,6-Dichloro-3-fluorophenyl)ethyl]-5-pyrimidin-5-yl-1H-pyrrolo[2,3-b]pyridine] |  | 1 to 10 µM
14 | CC(c1c(Cl)ccc(F)c1Cl)c1c[nH]c2ncc(-c3cnn(C4CCN(S(N)(=O)=O)CC4)c3)cc12 (centres unmarked) [Example 52, 4-(4-{3-[1-(2,6-Dichloro-3-fluorophenyl)ethyl]-1H-pyrrolo[2,3-b]pyridin-5-yl}-pyrazol-1-yl)-piperidine-1-sulfonic acid amide] | 0.1 to 1 µM | 
15 | CC(c1c(Cl)ccc(F)c1Cl)c1c[nH]c2ncc(-c3ccc(O)cc3)cc12 (centres unmarked) [Example 8, 4-{3-[1-(2,6-Dichloro-3-fluorophenyl)ethyl]-1H-pyrrolo[2,3-b]pyridin-5-yl}phenol] |  | 1 to 10 µM
16 | CC(c1c(Cl)ccc(F)c1Cl)c1c[nH]c2ncc(-c3ccc(C(=O)NC4CCCCC4)cc3)cc12 (centres unmarked) [Example 21, N-Cyclohexyl-4-{3-[1-(2,6-dichloro-3-fluorophenyl)ethyl]-1H-pyrrolo[2,3-b]pyridin-5-yl}benzamide] |  | 1 to 10 µM
17 | CC(c1c(Cl)ccc(F)c1Cl)c1c[nH]c2ncc(-c3ccc(NS(C)(=O)=O)cc3)cc12 (centres unmarked) [Example 17, N-(4-{3-[1-(2,6-Dichloro-3-fluorophenyl)ethyl]-1H-pyrrolo[2,3-b]pyridin-5-yl}phenyl)methanesulfonamide] |  | 1 to 10 µM

Now from value to compound:

Row | IC50 [1] | IC50 [2] | Compound
18 | 1 to 10 µM |  | C[C@@H](c1c(Cl)ccc(F)c1Cl)c1c[nH]c2ncc(-c3cnn(C4CCN(S(C)(=O)=O)CC4)c3)cc12 [Example 83, 3-[(R)-1-(2,6-Dichloro-3-fluorophenyl)ethyl]-5-[1-(1-methane-sulfonylpiperidin-4-yl)-1H-pyrazol-4-yl]-1H-pyrrolo[2,3-b]pyridine]
19 | 0.1 to 1 µM |  | C[C@H](c1c(Cl)ccc(F)c1Cl)c1c[nH]c2ncc(C3=CCCNC3)cc12 [Example 66, 3-[(S)-1-(2,6-Dichloro-3-fluorophenyl)ethyl]-5-(1,2,5,6-tetrahydropyridin-3-yl)-1H-pyrrolo[2,3-b]pyridine]
20 | ≤ 0.1 µM |  | C[C@H](c1c(Cl)ccc(F)c1Cl)c1c[nH]c2ncc(-c3cnn([C@H]4CC[C@H](O)CC4)c3)cc12 [Example 86, trans-4-(4-{3-[(1S)-1-(2,6-dichloro-3-fluorophenyl)ethyl]-1H-pyrrolo[2,3-b]pyridin-5-yl}-1H-pyrazol-1-yl)cyclohexanol]
21 | 0.1 to 1 µM |  | C[C@H](c1c(Cl)ccc(F)c1Cl)c1c[nH]c2ncc(-c3cnn(CC(=O)O)c3)cc12 [Example 74, (4-{3-[(S)-1-(2,6-Dichloro-3-fluorophenyl)ethyl]-1H-pyrrolo[2,3-b]pyridin-5-yl}-pyrazol-1-yl)-acetic acid]
22 | 0.1 to 1 µM |  | C[C@@H](c1c(Cl)ccc(F)c1Cl)c1c[nH]c2ncc(-c3cnn(C4CCN(C=O)CC4)c3)cc12 [Example 82, 4-(4-{3-[(R)-1-(2,6-Dichloro-3-fluorophenyl)ethyl]-1H-pyrrolo[2,3-b]-pyridin-5-yl}-pyrazol-1-yl)-piperidine-1-carbaldehyde]
23 | ≤ 0.1 µM |  | C[C@H](c1c(Cl)ccc(F)c1Cl)c1c[nH]c2ncc(-c3cnn([C@H]4CC[C@@H](O)CC4)c3)cc12 [Example 87, cis-4-(4-{3-[(1S)-1-(2,6-dichloro-3-fluorophenyl)ethyl]-1H-pyrrolo[2,3-b]pyridin-5-yl}-1H-pyrazol-1-yl)cyclohexanol]
24 | 1 to 10 µM |  | C[C@@H](c1c(Cl)ccc(F)c1Cl)c1c[nH]c2ncc(-c3cnn(C4CCN(C(N)=O)CC4)c3)cc12 [Example 84, 4-(4-{3-[(R)-1-(2,6-Dichloro-3-fluorophenyl)ethyl]-1H-pyrrolo[2,3-b]-pyridin-5-yl}-pyrazol-1-yl)-piperidine-1-carboxamide]
25 | 0.1 to 1 µM |  | C[C@H](c1c(Cl)ccc(F)c1Cl)c1c[nH]c2ncc(-c3ccncc3)cc12 [Example 68, 3-[(S)-1-(2,6-Dichloro-3-fluorophenyl)ethyl]-5-pyridin-4-yl-1H-pyrrolo[2,3-b]pyridine]
